Source: EP1488698A1, “Compositions for descreasing intracellular inositol trisphosphate concentration and uses thereof” (priority 1995, dated 1997)
Marks after values point to notes of the source that are not given here.

Tests used:
[1] = system: primary chick cortical neurons; test: Phosphoinositide hydrolysis assay (InsP3 production) in cultured primary cortical neurons; assay type: cell-based; details: for fold induction at 100 µM: Gallus gallus, Cortical neurone, 20 min, read-out: Ins-P-n
Method: The neurons were seeded in 24-well plastic tissue culture plates that had been coated with L-polylysine.
Receptor-stimulated and basal unstimulated hydrolysis of phosphoinositides was measured by the following procedure. […] The cells were then washed twice with 1 ml Dulbecco's phosphate-buffered saline (PBS) and 0.5 ml of PBS containing 4.5 g/L glucose was added. Sphingosine, psychosine, lysosulphatide, or lysosphingomyelin, prepared as the hydrochloride salt dissolved in water, were then added to produce the desired extracellular concentration in specific wells, […] The cells were then washed twice with 1 ml PBS, and pre-incubated for 15 minutes at 37°C with 0.5 ml PBS containing 10 mM LiCl and the compound to be tested was added. […] The tubes were vortexed thoroughly, then centrifuged at 500 x g for 5 minutes to separate the aqueous and chloroform phases. For each sample, a 1.5-ml aliquot of the upper (aqueous) phase was applied to a small column containing BioRad AG1X8 resin (formate form). Free [^3H]inositol and [^3H]glycerophosphoinositol were washed through the column with 5 ml of a solution containing 5 mM sodium borate and 60 mM sodium formate. The total phosphorylated [^3H] inositol fraction was eluted from the column for radiometric scintillation spectrometry analysis with 3 ml 1.0 M ammonium formate/0.1 M formic acid.
In addition, a 0.5 ml aliquot of the lower (chloroform) phase of each sample was analyzed radiometrically by scintillation spectrometry in order to determine the quantity of lipid-bound [^3H]myo-inositol. Estimation of phosphoinositide hydrolysis by phospholipase C is based upon the quantity of [^3H]inositol phosphates produced, and is expressed as the percentage of the latter relative to total free and componential [^3H]inositol (dpm ammonium formate + dpm chloroform fractions).

[2] = system: cortical neurons; test: Calcium ion signalling (fura 2) in intact cortical neurons; assay type: cell-based, chick
Method: Metabotropic receptor function was examined in intact neurons by assaying lysosphingolipid modulation of calcium ion signalling. Approximately 1 X 10^6 cortical neurons were cultured on rectangular L-polylysine-coated coverslips and loaded with lysocerebroside or lysosphingomyelin to a level of 150 ± 20 pmoles per mg protein. The neurons were returned to complete Ham's high glucose medium/DMEM (1:1, vol:vol) and infiltrated with 5 µM fura 2/AM (Molecular Probes, Eugene, OR). Fura 2 is a calcium chelator whose fluorescence absorbance shifts to shorter wavelength upon calcium ion binding is measurable in intact cells. A change in intraneuronal calcium ion concentration was monitored as a change in the fluorescence spectrum.
The neurons were exposed to 10 µM glutamate agonist (for example, ibotenate) for 30 minutes at 37°C. The coverslips were then transferred to quartz cuvettes in medium containing 250 µM sulfinpyrazone to prevent fura 2/AM diffusion. Fluorescence ratios were recorded in a Perkin-Elmer LS-5 Fluorescence Spectrometer thermostatted at 37°C at excitation wavelengths of 340 and 380 nm, and emission measurement at 500 nm. Calcium ion signalling in agonist-stimulated neurons was 3.0 ± 0.2 arbitrary units for ibotenate-exposed neurons.

[3] = system: cultured neurons; test: Lysosphingolipid content of cultured neurons by NBDZF fluorescence tagging; assay type: cell-based, chick
Excerpt: Agonist-binding to metabotropic receptors influences the levels of lysosphingolipid in neuronal membranes. However, there is no convenient methodology available for the measurement of lysosphingolipid content in cultured neurons. As a result, a sensitive method of fluorometric tracing has been devised and is described herein. The measurement of lysosphingolipid content in cultured neurons is based on the stable fluorescence-tagging procedure using 4-fluoro, 7-nitrobenzofuran (NBDZF) described by Nozowa et al J. Neutochem. 59:607-609, 1992). The procedure was applied to: resting neurons; neurons exposed to 100 µM metabotropic receptor agonist for 1 hour; resting neurons exogenously enriched in lysosphingolipids; and neurons exogenously enriched in lysosphingolipids and exposed to metabotropic receptor agonist for 1 hour. The neurons were scraped in batches of 10^7 (1 Petri dish, approximately 8 cm in diameter, is equivalent to 2 mg membrane protein) and subjected to anaylsis.
Total lipids were removed from the neuron samples by repeated extraction with chloroform:methanol (2:1, vol:vol). The lysosphingolipids were separated from total neuronal lipid in 90 ± 5 % recovery yield (n = 10) by the stepped chromatographic procedure of Van Veldhoven et al. (Anal. Biochem. 183:177-189, 1989). The recovered lysosphingolipids were stably tagged with NBDZF by the rapid procedure of Nozowa et al. (supra). The fluorescence tagged neuronal lysosphingolipids were separated in parallel with reference standards NBDZF-Sph, NBDZF-Psy, and NBDZF-Lsm on high performance silica gel thin layer chromatography plates with acetonitrile:H2O (10:0.5, vol:vol). The highly fluorescent, well separated bands were scraped from the plate. The fluorescence tagged lysosphingolipids are eluted from the scraped silica gel with methanol:1 N HCl (1:0.02, vol:vol). The fluorescence tagged lysosphingolipid eluates were quantitated against reference standards by fluorescence measurement in a Perkin-Elmer LS-5 Fluorescence Spectrometer.
Sphingolipid content of neurons exposed to sphingosine, lysocerebroside, and lysosphingomyelin was examined as follows. A Petri dish containing approximately 10^7 neurons was incubated with 5 µCi [^3H]myo-Ins in 3 ml DMEM overnight to prelabel the phosphoinositide InsP3 may contain. The neurons were washed with PBS and 3 ml of PBS containing 4.5 g/l glucose was added. Preparations of sphingosine, lysocerebroside, lysosphingomyelin (Sigma Chemical Co., St. Louis, MO) and combinations of each were prepared as the hydrochloride salt dissolved in PBS. The lysosphingolipids were added to the Petri dishes to produce a concentration ranging from 0 - 150 µM. The dishes were held at room temperature for 0.5, 1, or 2 hours, then washed with PBS and incubated with 5 Units of trypsin in glucose/PBS for […] at 37°C. Trypsinization removes non-specifically bound lysosphingolipids that may adhere to extracellular plasma membrane protein domains. Non-specific adherence between cationic micelles of lysosphingolipids and the neuronal glycocalyx is avoided by performing the experiments with lysosphingolipid concentrations below the critical micelle concentration. Neurons were analyzed for lysosphingolipid content as described above.

## N[C@@H](CC(=O)O)C(=O)O [Aspartate, aspartate, reference compound]
[1]
  fold induction at 100 µM: 2.7 ± 0.06

## N[C@@H](CCC(=O)O)C(=O)O [Glutamate, glutamate, reference compound]
[1]
  fold induction at 100 µM: 3.3 ± 0.05

## NC(C(=O)O)c1cc(O)no1 (stereo not drawn) [Ibotenate, ibotenate, reference compound]
[1]
  Ins-P-n: 3.00 ± 0.10^f
[2]
  Calcium ion signalling: 3.0 ± 0.2 arbitrary units
[3]
  lysocerebroside content of neurons: 80 ± 5
  lysosphingomyelin content of neurons: 52 ± 2
  sphingosine content of neurons: 85 ± 3

## CN[C@@H]1C[C@H]2O[C@@](C)([C@@H]1OC)n1c3ccccc3c3c4c(c5c6ccccc6n2c5c31)C(=O)NC4 [staurosporine, reference compound]
[1]; brain neurons responsive to excitatory amino acids, protein kinase C inhibitor
  influence on the effects of sphingosine, lysocerebroside, or lysosphingomyelin on InsP3 production: does not influence

## Lysosulphatide [reference compound]
[1]; chick cortical neurons
  inhibitory effect on InsP3 signalling: without inhibitory effect
